The source of these data is article PMC12064607 (Clinical Pharmacokinetics, 2025).

The EC50 is the midpoint of the concentration-response curve. What is called EC90 is the point of the concentration-response curve where the effect stands at 90%.

Experiment [1] concerns SARS-CoV-2 variants. The settings on record: cited from earlier work.
The subject of experiment [2] is SARS-CoV-2 variants. Kind of experiment: microbe, parasite or virus in culture.
The mark [3] stands for this setting: Severe acute respiratory syndrome coronavirus 2, read-out: highest EC50 reported in the literature, corrected for plasma protein binding.
The mark [4] stands for this setting: Severe acute respiratory syndrome coronavirus 2, read-out: highest EC90 reported in the literature, corrected for plasma protein binding.
Where [5] appears, read: Severe acute respiratory syndrome coronavirus 2, read-out: lowest EC50 reported in the literature, corrected for plasma protein binding.
[6] abbreviates: Severe acute respiratory syndrome coronavirus 2, read-out: lowest EC90 reported in the literature, corrected for plasma protein binding.

Each structure is given as a SMILES string. Where two headings read alike, the source gives them in different places.

For `CCC(CC)COC(=O)[C@H](C)N[P@](=O)(OC[C@H]1O[C@@](C#N)(c2ccc3c(N)ncnn23)[C@H](O)[C@@H]1O)Oc1ccccc1` [Remdesivir, reference compound], the EC50 in the experiment with SARS-CoV-2 variants [1] is 1 to 1700 nM; in the experiment with SARS-CoV-2 variants [2] (setting [3]), 14200 nM; in the experiment with SARS-CoV-2 variants [2] (setting [5]), 8 nM. The EC90 in the experiment with SARS-CoV-2 variants [1] was 22 to 3100 nM; in the experiment on SARS-CoV-2 variants [2] (setting [4]) it was 25800 nM; in the experiment with SARS-CoV-2 variants [2] (setting [6]), 180 nM.

`N#C[C@@]1(c2ccc3c(N)ncnn23)O[C@H](CO)[C@@H](O)[C@H]1O` [GS-441524]: the values for the EC50 in the experiment with SARS-CoV-2 variants [1], in the experiment with SARS-CoV-2 variants [2] (setting [3]) and with SARS-CoV-2 variants [2] (setting [5]) were 80 to 5600 nM, 5710 nM and 80 nM, respectively. Besides, the EC90 in the experiment with SARS-CoV-2 variants [1] is 710 to 3900 nM; in the experiment with SARS-CoV-2 variants [2] (setting [4]), 3980 nM; with SARS-CoV-2 variants [2] (setting [6]), 720 nM.
